Source: ChEMBL document CHEMBL2401692, “Synthesis, structure-activity relationships, and in vivo efficacy of the novel potent and selective anaplastic lymphoma kinase (ALK) inhibitor 5-chloro-N2-(2-isopropoxy-5-methyl-4-(piperidin-4-yl)phenyl)-N4-(2-(isopropylsulfonyl)phenyl)pyrimidine-2,4-diamine (LDK378) currently in phase 1 and phase …” (J Med Chem, 2013)

Columns and labels:
[1] = Plasma clearance in Beagle dog at 5 mg/kg, iv; format: ADME, organism-based, Canis lupus familiaris; set-up: dose 5 mg/kg, route intravenous
[2] = molecular target: Mast/stem cell growth factor receptor Kit (Homo sapiens, UniProt P10721); assay: Inhibition of TEL-fused cKIT (unknown origin) by cell-based assay
[3] = molecular target: T1, Fibroblast growth factor receptor 3 (Homo sapiens, UniProt P22607); assay: Inhibition of TEL-fused FGFR3 (unknown origin) by cell-based assay
[4] = tested on: Rattus norvegicus; assay: Inhibition of ALK-mediated STAT3 phosphorylation in human KARPAS299 cells xenografted in Rowett nude rat at 50 mg/kg, po after 72 hrs Western blotting analysis relative to control; format: functional; details: KARPAS-299, 72 h
[5] = Volume of distribution at steady state in cynomolgus monkey at 5 mg/kg, iv; format: ADME, organism-based, Macaca fascicularis; set-up: dose 5 mg/kg, route intravenous; details: in vivo, read-out: Vdss
[6] = Tmax in Beagle dog at 20 mg/kg, po; format: ADME, organism-based, Canis lupus familiaris; set-up: dose 20 mg/kg, route oral; details: in vivo
[7] = tested on: Rhesus monkey; assay: Cardiotoxicity in monkey assessed as QTc prolongation; format: toxicity, organism-based, Macaca mulatta; details: in vivo
[8] = molecular target: Fibroblast growth factor receptor 2 (Homo sapiens, UniProt P21802); assay: Inhibition of FGFR2 (unknown origin) after 60 mins
[9] = molecular target: T2, Hepatocyte growth factor receptor (Homo sapiens, UniProt P08581); assay: Inhibition of TEL-fused MET (unknown origin) by cell-based assay
Target sequence in this assay (P08581 25-1390 limits assumed): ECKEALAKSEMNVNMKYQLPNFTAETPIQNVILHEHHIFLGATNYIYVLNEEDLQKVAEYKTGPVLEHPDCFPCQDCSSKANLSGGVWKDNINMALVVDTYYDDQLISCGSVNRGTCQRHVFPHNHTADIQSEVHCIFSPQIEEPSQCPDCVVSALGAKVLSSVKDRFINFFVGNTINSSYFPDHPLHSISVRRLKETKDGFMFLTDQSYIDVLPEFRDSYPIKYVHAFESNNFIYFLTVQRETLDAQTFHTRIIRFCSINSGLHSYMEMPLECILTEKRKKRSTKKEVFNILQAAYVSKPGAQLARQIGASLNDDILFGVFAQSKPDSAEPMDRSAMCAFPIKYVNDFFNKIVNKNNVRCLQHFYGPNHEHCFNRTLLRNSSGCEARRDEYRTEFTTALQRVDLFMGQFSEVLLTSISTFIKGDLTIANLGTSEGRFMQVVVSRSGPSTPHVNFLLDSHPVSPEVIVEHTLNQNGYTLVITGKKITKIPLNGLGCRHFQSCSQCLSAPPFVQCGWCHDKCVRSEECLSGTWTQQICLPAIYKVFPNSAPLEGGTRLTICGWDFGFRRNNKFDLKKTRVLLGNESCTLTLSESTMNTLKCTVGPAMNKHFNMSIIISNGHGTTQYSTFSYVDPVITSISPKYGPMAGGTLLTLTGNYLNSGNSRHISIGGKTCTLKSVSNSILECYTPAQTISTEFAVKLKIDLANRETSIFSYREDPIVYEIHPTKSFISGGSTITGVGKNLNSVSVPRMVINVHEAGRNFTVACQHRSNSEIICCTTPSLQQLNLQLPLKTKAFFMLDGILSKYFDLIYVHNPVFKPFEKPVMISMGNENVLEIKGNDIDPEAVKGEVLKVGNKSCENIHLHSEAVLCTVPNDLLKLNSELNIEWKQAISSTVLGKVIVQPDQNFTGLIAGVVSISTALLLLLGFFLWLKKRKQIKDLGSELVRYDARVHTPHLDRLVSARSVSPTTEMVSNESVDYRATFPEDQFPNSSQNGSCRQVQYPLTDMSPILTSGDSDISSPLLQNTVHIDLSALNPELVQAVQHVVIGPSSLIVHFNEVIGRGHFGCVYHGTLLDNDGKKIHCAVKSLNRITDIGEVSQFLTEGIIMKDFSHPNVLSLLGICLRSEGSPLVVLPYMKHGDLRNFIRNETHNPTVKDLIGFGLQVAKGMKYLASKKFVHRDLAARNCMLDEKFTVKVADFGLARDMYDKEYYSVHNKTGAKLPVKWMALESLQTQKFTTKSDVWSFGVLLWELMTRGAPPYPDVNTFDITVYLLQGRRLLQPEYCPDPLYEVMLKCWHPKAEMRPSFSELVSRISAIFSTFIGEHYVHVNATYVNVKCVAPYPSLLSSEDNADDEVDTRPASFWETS

[10] = molecular target: T1, Fibroblast growth factor receptor 3; assay: Inhibition of FGFR3 (unknown origin) after 60 mins
[11] = molecular target: T2, Hepatocyte growth factor receptor
Description: Inhibition of cMET (unknown origin) after 60 mins

[12] = molecular target: Cyclin-dependent kinase 4 (Homo sapiens, UniProt P11802); assay: Inhibition of CDK4 (unknown origin) after 60 mins
[13] = AUC in BALB/c mouse at 20 mg/kg, po; format: ADME, organism-based; set-up: dose 20 mg/kg, route oral; details: plasma
[14] = Tmax in Sprague-Dawley rat at 3 mg/kg, iv; format: ADME, organism-based; set-up: dose 3 mg/kg, route intravenous; details: in vivo
[15] = Plasma clearance in cynomolgus monkey at 5 mg/kg, iv; format: ADME, organism-based, Macaca fascicularis; set-up: dose 5 mg/kg, route intravenous
[16] = molecular target: Cyclin-dependent kinase 2 (Homo sapiens, UniProt P24941); assay: Inhibition of CDK2 (unknown origin) after 60 mins
[17] = organism: Canis familiaris; assay: Cardiotoxicity in dog assessed as QTc prolongation; format: toxicity, organism-based, Canis lupus familiaris; details: in vivo
[18] = molecular target: Serine/threonine-protein kinase PAK 2 (Homo sapiens, UniProt Q13177); assay: Inhibition of PAK2 (unknown origin) after 60 mins
[19] = Intrinsic clearance in rat liver microsomes; format: ADME, Microsome; details: read-out: CLH
[20] = Half life in cynomolgus monkey at 5 mg/kg, iv; format: ADME, organism-based, Macaca fascicularis; set-up: dose 5 mg/kg, route intravenous; details: in vivo
[21] = tested on: NCI-H2228; assay: Antitumor activity against human NCI-H2228 cells xenografted in Rowett nude rat assessed as tumor growth inhibition factor at 10 mg/kg, po for 14 days measured 7 to 72 hrs post dosing relative to control; format: functional
[22] = tested on: NCI-H2228; details: Homo sapiens
Description: Antitumor activity against human NCI-H2228 cells xenografted in po dosed Rowett nude rat assessed as tumor growth inhibition administered for 14 days measured 7 to 72 hrs post dosing

[23] = in vivo; details: Sprague-Dawley, rat, po, 10 mg/kg
[24] = tested on: KARPAS-299; assay: Antitumor activity against human KARPAS299 cells xenografted in Rowett nude rat assessed as tumor regression at 25 mg/kg, po for 14 days measured 7 to 72 hrs post dosing relative to control; format: functional
[25] = Volume of distribution at steady state in BALB/c mouse at 5 mg/kg, iv; format: ADME, organism-based; set-up: dose 5 mg/kg, route intravenous; details: in vivo, read-out: Vdss
[26] = Drug uptake in tumor of Rowett nude rat xenografted with human KARPAS299 cells at 50 mg/kg, po; format: ADME, organism-based, Neoplasm, KARPAS-299; set-up: dose 50 mg/kg, route oral; details: in vivo
[27] = AUC in Sprague-Dawley rat at 3 mg/kg, iv; format: ADME, organism-based; set-up: dose 3 mg/kg, route intravenous; details: plasma
[28] = molecular target: Tyrosine-protein kinase BTK (Homo sapiens, UniProt Q06187); assay: Inhibition of BTK (unknown origin) after 60 mins
[29] = molecular target: Vascular endothelial growth factor receptor 2 (Homo sapiens, UniProt P35968); assay: Inhibition of TEL-fused KDR (unknown origin) by cell-based assay
[30] = molecular target: T3, Tyrosine-protein kinase Lck (Homo sapiens, UniProt P06239); assay: Inhibition of LCK (unknown origin) after 60 mins
[31] = Half life in BALB/c mouse at 5 mg/kg, iv; format: ADME, organism-based; set-up: dose 5 mg/kg, route intravenous; details: in vivo
[32] = Volume of distribution at steady state in Beagle dog at 5 mg/kg, iv; format: ADME, organism-based, Canis lupus familiaris; set-up: dose 5 mg/kg, route intravenous; details: in vivo, read-out: Vdss
[33] = molecular target: Tyrosine-protein kinase Fgr (Homo sapiens, UniProt P09769); assay: Inhibition of TEL-fused FGR (unknown origin) by cell-based assay
[34] = Tmax in BALB/c mouse at 20 mg/kg, po; format: ADME, organism-based; set-up: dose 20 mg/kg, route oral; details: in vivo
[35] = Cmax in BALB/c mouse at 20 mg/kg, po; format: ADME, organism-based; set-up: dose 20 mg/kg, route oral; details: in vivo
[36] = molecular target: Rho-associated protein kinase 2 (Homo sapiens, UniProt O75116); assay: Inhibition of ROCK2 (unknown origin) after 60 mins
[37] = Tmax in Sprague-Dawley rat at 10 mg/kg, po; format: ADME, organism-based; set-up: dose 10 mg/kg, route oral; details: in vivo
[38] = molecular target: T3, Tyrosine-protein kinase Lck; assay: Inhibition of TEL-fused LCK (unknown origin) by cell-based assay
[39] = Oral bioavailability in Beagle dog at 20 mg/kg; format: ADME, organism-based, Canis lupus familiaris; details: in vivo
[40] = molecular target: Tyrosine-protein kinase Lyn (Homo sapiens, UniProt P07948); assay: Inhibition of LYN (unknown origin) after 60 mins
[41] = Inhibition of AKT (unknown origin) after 60 mins; set-up: species or system Homo sapiens
[42] = tested on: NCI-H2228; assay: Antitumor activity against human NCI-H2228 cells xenografted in Rowett nude rat assessed as complete tumor regression at 25 mg/kg, po for 14 days measured 7 to 72 hrs post dosing relative to control; format: functional
[43] = molecular target: Tyrosine-protein kinase SYK (Homo sapiens, UniProt P43405); assay: Inhibition of SYK (unknown origin) after 60 mins
[44] = AUC in Beagle dog at 5 mg/kg, iv; format: ADME, organism-based, Canis lupus familiaris; set-up: dose 5 mg/kg, route intravenous; details: plasma
[45] = molecular target: Cytochrome P450 3A4 (Homo sapiens, UniProt P08684); assay: Inhibition of CYP3A4 in human liver microsomes using midazolam as substrate by LC-MS/MS analysis; format: ADME, Microsome
[46] = tested on: BaF3; assay: cells; details: Mus musculus
[47] = Cmax in cynomolgus monkey at 60 mg/kg, po; format: ADME, organism-based, Macaca fascicularis; set-up: dose 60 mg/kg, route oral; details: in vivo
[48] = Cmax in cynomolgus monkey at 5 mg/kg, iv; format: ADME, organism-based, Macaca fascicularis; set-up: dose 5 mg/kg, route intravenous; details: in vivo
[49] = molecular target: Platelet-derived growth factor receptor alpha (Homo sapiens, UniProt P16234); assay: Inhibition of PDGFRalpha (unknown origin) after 60 mins
[50] = tested on: KARPAS-299; details: Homo sapiens
Description: Antitumor activity against human KARPAS299 cells xenografted in po dosed Rowett nude rat assessed as tumor growth inhibition administered for 14 days measured 7 to 72 hrs post dosing

[51] = AUC in cynomolgus monkey at 5 mg/kg, iv; format: ADME, organism-based, Macaca fascicularis; set-up: dose 5 mg/kg, route intravenous; details: plasma
[52] = Plasma clearance in BALB/c mouse at 5 mg/kg, iv; format: ADME, organism-based; set-up: dose 5 mg/kg, route intravenous
[53] = molecular target: Tyrosine-protein kinase ZAP-70 (Homo sapiens, UniProt P43403); assay: Inhibition of ZAP70 (unknown origin) after 60 mins
[54] = Oral bioavailability in BALB/c mouse at 20 mg/kg; format: ADME, organism-based; details: in vivo
[55] = tested on: NCI-H2228; assay: Antitumor activity against human NCI-H2228 cells xenografted in Rowett nude rat assessed as tumor growth inhibition factor at 5 mg/kg, po for 14 days measured 7 to 72 hrs post dosing relative to control; format: functional

T3 sequence (P06239 whole entry): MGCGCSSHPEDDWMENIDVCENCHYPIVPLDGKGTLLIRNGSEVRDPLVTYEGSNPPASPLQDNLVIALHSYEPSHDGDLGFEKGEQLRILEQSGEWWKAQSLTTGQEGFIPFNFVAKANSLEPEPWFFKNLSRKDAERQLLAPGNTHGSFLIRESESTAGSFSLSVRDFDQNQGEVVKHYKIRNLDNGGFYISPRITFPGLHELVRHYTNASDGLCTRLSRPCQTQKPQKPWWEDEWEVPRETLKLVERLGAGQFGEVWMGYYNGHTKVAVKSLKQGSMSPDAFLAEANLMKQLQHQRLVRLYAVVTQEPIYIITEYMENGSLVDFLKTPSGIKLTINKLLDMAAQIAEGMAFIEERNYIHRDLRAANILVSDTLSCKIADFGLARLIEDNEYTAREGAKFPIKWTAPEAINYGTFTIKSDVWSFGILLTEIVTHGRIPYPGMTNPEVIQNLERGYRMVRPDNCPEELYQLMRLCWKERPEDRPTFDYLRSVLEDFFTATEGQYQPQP
Platelet-derived growth factor receptor alpha, sequence (P16234 whole entry): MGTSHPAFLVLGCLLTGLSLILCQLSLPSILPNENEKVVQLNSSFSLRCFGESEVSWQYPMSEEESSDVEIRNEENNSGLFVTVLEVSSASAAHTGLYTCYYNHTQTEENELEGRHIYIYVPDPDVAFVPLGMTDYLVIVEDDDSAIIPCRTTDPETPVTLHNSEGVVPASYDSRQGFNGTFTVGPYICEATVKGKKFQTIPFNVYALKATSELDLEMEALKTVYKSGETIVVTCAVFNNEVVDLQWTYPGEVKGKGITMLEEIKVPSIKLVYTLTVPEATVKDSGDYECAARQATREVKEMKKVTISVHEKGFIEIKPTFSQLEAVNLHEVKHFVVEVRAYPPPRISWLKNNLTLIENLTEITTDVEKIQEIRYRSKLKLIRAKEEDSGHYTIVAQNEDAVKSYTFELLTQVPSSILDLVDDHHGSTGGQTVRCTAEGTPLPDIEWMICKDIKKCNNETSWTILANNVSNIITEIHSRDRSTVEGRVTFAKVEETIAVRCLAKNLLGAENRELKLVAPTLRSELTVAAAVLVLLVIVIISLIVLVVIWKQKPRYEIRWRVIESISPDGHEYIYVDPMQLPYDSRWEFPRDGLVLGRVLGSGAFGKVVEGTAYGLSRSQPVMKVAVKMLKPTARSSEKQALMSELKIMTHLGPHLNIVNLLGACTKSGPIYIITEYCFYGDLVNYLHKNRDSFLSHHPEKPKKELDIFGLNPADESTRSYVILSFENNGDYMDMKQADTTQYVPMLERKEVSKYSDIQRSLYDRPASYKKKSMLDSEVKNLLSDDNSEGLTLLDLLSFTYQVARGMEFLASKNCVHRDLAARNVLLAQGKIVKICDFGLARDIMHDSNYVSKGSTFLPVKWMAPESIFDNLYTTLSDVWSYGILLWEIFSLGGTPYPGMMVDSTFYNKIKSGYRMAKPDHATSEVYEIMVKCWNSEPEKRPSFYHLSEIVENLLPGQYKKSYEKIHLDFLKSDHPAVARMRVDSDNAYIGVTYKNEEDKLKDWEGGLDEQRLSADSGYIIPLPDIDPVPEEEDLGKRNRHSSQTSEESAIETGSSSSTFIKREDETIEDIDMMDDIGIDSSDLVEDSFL
Rho-associated protein kinase 2, sequence (O75116 whole entry): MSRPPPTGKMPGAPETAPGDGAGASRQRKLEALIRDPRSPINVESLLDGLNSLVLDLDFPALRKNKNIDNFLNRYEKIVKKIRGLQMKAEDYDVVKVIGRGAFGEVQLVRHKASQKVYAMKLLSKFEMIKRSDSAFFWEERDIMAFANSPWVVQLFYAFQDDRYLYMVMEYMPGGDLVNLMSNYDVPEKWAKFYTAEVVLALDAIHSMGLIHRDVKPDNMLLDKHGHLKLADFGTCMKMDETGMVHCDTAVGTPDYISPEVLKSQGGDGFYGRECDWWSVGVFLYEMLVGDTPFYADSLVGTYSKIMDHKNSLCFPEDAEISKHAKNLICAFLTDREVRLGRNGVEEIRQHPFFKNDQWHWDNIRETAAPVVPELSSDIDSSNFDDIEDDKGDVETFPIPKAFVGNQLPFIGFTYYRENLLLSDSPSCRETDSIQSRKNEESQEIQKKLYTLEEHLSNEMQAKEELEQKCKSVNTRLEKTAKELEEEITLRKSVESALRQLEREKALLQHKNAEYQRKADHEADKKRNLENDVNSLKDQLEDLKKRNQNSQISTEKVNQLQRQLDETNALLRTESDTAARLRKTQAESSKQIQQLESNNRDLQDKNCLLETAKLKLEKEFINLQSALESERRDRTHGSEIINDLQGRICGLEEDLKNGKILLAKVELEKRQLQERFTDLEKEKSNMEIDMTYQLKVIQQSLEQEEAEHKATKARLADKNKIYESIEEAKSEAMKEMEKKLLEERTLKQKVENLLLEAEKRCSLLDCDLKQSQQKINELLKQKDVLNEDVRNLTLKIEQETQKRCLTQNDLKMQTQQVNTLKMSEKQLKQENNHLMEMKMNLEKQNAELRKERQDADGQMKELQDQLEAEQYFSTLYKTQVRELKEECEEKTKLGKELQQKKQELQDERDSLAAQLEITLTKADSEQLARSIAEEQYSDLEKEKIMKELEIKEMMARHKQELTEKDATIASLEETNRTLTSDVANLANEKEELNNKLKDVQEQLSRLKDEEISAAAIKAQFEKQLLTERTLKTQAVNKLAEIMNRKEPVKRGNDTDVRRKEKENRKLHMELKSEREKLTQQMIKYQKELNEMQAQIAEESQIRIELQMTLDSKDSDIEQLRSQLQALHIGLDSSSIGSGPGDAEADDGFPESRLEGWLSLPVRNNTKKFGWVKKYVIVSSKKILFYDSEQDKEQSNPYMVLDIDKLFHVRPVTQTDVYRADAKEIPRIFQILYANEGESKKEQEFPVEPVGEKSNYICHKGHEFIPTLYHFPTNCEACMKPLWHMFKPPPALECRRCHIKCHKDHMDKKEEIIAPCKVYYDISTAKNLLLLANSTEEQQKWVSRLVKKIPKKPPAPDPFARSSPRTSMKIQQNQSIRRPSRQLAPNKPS
Cytochrome P450 3A4, sequence (P08684 whole entry): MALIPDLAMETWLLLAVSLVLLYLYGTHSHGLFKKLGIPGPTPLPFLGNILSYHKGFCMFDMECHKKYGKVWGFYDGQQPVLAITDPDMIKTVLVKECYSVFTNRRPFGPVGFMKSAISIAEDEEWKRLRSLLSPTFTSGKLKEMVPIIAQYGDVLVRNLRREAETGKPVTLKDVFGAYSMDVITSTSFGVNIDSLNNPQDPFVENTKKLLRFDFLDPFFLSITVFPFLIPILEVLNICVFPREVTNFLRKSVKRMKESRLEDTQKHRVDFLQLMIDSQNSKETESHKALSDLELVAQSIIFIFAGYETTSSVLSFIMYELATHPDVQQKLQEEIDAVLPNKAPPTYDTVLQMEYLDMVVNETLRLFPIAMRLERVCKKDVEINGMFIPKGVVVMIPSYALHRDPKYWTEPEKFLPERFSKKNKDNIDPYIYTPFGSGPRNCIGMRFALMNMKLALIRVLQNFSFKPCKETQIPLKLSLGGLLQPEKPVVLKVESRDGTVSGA

SMILES: Cc1cc(Nc2ncc(Cl)c(Nc3ccccc3S(=O)(=O)C(C)C)n2)c(OC(C)C)cc1C1CCNCC1 [CERITINIB]
- clearance [1]: 9.2 mL/min/kg
- IC50 [2]: 2.86 µM
- IC50 [3]: > 10 µM
- inhibition in vivo at 50 mg/kg [4]: 80%
- Vd [5]: 15 L/kg
- Tmax [6]: 8 h
- Activity [7]: Non-toxic
- IC50 [8]: 0.26 µM
- IC50 [9]: 1.34 µM
- IC50 [10]: 0.43 µM
- IC50 [11]: 3.17 µM
- IC50 [12]: 4.72 µM
- AUC [13]: 12.3 µM·h
- Tmax [14]: 1.8 min
- clearance [15]: 12.8 mL/min/kg
- IC50 [16]: 3.97 µM
- Activity [17]: Non-toxic
- IC50 [18]: > 10 µM
- microsomal CLint [19]: 10 µL/min/mg
- half-life [20]: 26 h
- T/C [21]: 2%
- TGI [22]: Dose-dependent effect
- Cmax [23]: 259 nM
- T/C [24]: -33%
- Vd [25]: 9.7 L/kg
- Drug uptake [26]: Active
- AUC [27]: 2.78 µM·h
- IC50 [28]: 3.36 µM
- IC50 [29]: 4.21 µM
- IC50 [30]: 0.56 µM
- half-life [31]: 6.2 h
- Vd [32]: 13.5 L/kg
- IC50 [33]: 1.95 µM
- Tmax [34]: 7 h
- Cmax [35]: 696 nM
- IC50 [36]: 1.27 µM
- Tmax [37]: 7 h
- IC50 [38]: 0.672 µM
- bioavailability [39]: 119%
- IC50 [40]: 0.84 µM
- IC50 [41]: > 10 µM
- T/C [42]: -100%
- IC50 [43]: 3.05 µM
- AUC [44]: 18.1 µM·h
- INH [45]: 1.5 µM
- IC50 [46]: 2.48 µM
- Cmax [47]: 1700 nM
- Cmax [48]: 2530 nM
- IC50 [49]: 1.14 µM
- TGI [50]: Dose-dependent effect
- AUC [51]: 11.3 µM·h
- clearance [52]: 26.6 mL/min/kg
- IC50 [53]: 9.7 µM
- bioavailability [54]: 55%
- T/C [55]: 67%
